The values that follow come from patent US20170239212A1, “[…] AND USE THEREOF AS ANTIVIRAL AGENTS” (priority 2014, published 2017).

Where only a bound is given, the exact number is not on record here.

For one data set, the system named is U937 cells. Briefly: Inhibition of U937 cell proliferation. The format is cell-based, human. To be noted: for Block of PMA inhibition of U937 cell proliferation: 10 nM PMA with different concentrations of compound; for Inhibition of U937 cell proliferation (total cells as % of control): compound alone, 72 hours. The procedure:
U937 cells (Sundstrom, C.; Nilsson, K.: Establishment and characterization of a human histiocytic lymphoma cell line (U-937). Int. J. Cancer 1976, 17: 565-577), purchased from ATCC (Manassas, Va.) and cultured in RPMI-1640 medium supplemented with 10% FBS (ATCC, Manassas, Va.), were plated in 35 mm dishes at a density of 2×10^5 living cells/ml and treated with different concentrations of the drugs or DMSO. After 72 hours, the number of cells in the supernatant (non-attached cells) and the number of attached cells (after trypsinization) were counted using a Beckman particle counter (Beckman Coulter Inc., Fullerton, Calif.). The number of attached cells is expressed as percent of total cells (FIGS. 8-10).
U937 cells were treated with PMA (0.1-100 nM), bryostatin 1 (1-1000 nM), the indicated compound (1-1000 nM), 10 nM PMA with different concentrations of bryostatin 1 (1-1000 nM) or 10 nM PMA with different concentrations of indicated compound (1-1000 nM). The number of attached and non-attached cells was counted and the number of total cells was expressed as % of control. The bars and error bars represent the average and the standard error of the mean of five independent experiments (FIGS. 8-10).
(§1) U937 cells (Sundstrom and Nilsson, 1976), purchased from ATCC (Manassas, Va.) and cultured in RPMI-1640 medium supplemented with 10% FBS (ATCC, Manassas, Va.), were plated in 35 mm dishes at a density of 1×10^5 living cells/ml and treated with different concentrations of the drugs or DMSO. After 72 hours, the number of cells in the supernatant (non-attached cells) and the number of attached cells (after trypsinization) were counted using a particle counter. The number of attached cells is expressed as percent of total cells.
U937 cells were treated with PMA (0.01-100 nM), bryostatin 1 (0.1-1000 nM), analogue 12 (MERLE 28) (0.1-1000 nM), 10 nM PMA with different concentrations of bryostatin 1 (0.1-1000 nM) or 10 nM PMA with different concentrations of analogue 12 (0.1-1000 nM). The numbers of attached and non-attached cells were counted and the number of total cells was expressed as % of control. The bars and error bars represent the average and the standard error of the mean of at least three independent experiments.
as §1
U937 cells were treated with PMA (0.1-100 nM), bryostatin 1 (1-1000 nM), the indicated compound (1-1000 nM), 10 nM PMA with different concentrations of bryostatin 1 (1-1000 nM) or 10 nM PMA with different concentrations of indicated compound (1-1000 nM). The number of attached and non-attached cells was counted and the number of total cells was expressed as % of control. The bars and error bars represent the average and the standard error of the mean of at least three independent experiments.

The next data set has as its system cFos. Briefly: Induction of cFos in LNCaP cells (western blot). It counts as cell-based, human. The conditions noted are these: 2, 5 or 8 hrs treatment. The procedure:
FIGS. 14A-14C show the induction of cFos and phosphorylation of PKC6 at Y311 in LNCaP cells. […] The proteins from the lysates were separated by 10% SDS-PAGE, electroblotted to nitrocellulose membranes and probed with anti-cFos primary and anti-rabbit secondary antibodies, followed by ECL visualization. Data are representative of four independent experiments. […] The cFos signal was normalized to the 3-actin signal to correct for loading and the response induced by 100 nM PMA at 2 hrs was taken as 100%. Data represent the means±SEM of four independent experiments. […] Data represent the means±SEM of three independent experiments.
LNCaP cells treated for 48 hours with the different drugs or with DMSO as control were washed and re-suspended in phosphate buffered saline. Yo-Pro-1 (Invitrogen, Carlsbad, Calif.) was added to a final concentration of 1 μM and the cells were incubated for 20 min at 4° C. in the dark. 7-Aminoactinomycin D (7-AAD) (Invitrogen, Carlsbad, Calif.) was then added at a 5 μg/mL final concentration 10 minutes before analysis by flow cytometry using the FACSCalibur system (Becton Dickinson, Mountain View, Calif.). Data were analyzed with FlowJo 7 (Tree Star Inc., Ashland, Oreg.). The Yo-Pro-1 positive cells were considered apoptotic and were expressed as % of total cells. […]
On the technique in general: In western blotting, separated proteins are transferred to a membrane and probed.

Data set [1] concerns human osteosarcoma (HOS) cells. Kind of data set: HOS cell viability (CellTiter-Glo, cellular ATP). It counts as cell-based. Also noted: unit not given here. To be noted: knock down of cellular ATP. The method, then:
(§2) Specifically, EC50 and CC50 values were determined in parallel using 10 concentrations of compound from 3 fold serial dilutions starting a 5 uM as the highest concentration. Cells and media were added to compounds with a final concentration of DMSO of 1% and incubated at 37° C., 5% CO2 for 24, 48 and 72 hours. EC50 was measured by induced luciferase activity detected by the use of the Steady-Glo® Luciferase reagent (PROMEGA) with an EnVision (Perkin-Elmer) plate reader. CC50 was determined by the dose dependent knock down of cellular ATP detected by the use of CellTiter-Glo® Luminescent Cell Viability reagent (PROMEGA) with an EnVision (Perkin-Elmer) plate reader.

In data set [2] the test system is LNCaP human prostate cancer cells. Briefly: Apoptosis of LNCaP cells (flow cytometry, Yo-Pro-1/7-AAD). The format is cell-based. The conditions noted are these: 48 hr; for Induction of apoptosis in LNCaP cells: compound alone. The method, then:
FIGS. 12A-12D show the effect of different compounds on the proliferation and apoptosis of LNCaP cells. […] Time-elapsed images were taken with an Incucyte imaging system every hour for 4 days. The proliferation of LNCaP cells is presented as increase in confluency (read by the instrument) at 80 hrs. Data represent the means±SEM of three independent experiments. […] Apoptosis was measured 2 days after treatment by flow cytometry using 7-AAD and Yo-Pro-1 as described in Materials and Methods. Data represent the means±SEM of three independent experiments.
LNCaP cells treated for 48 hours with the different drugs or with DMSO as control were washed and re-suspended in phosphate buffered saline. Yo-Pro-1 (Invitrogen, Carlsbad, Calif.) was added to a final concentration of 1 μM and the cells were incubated for 20 min at 4° C. in the dark. 7-Aminoactinomycin D (7-AAD) (Invitrogen, Carlsbad, Calif.) was then added at a 5 μg/mL final concentration 10 minutes before analysis by flow cytometry using the FACSCalibur system (Becton Dickinson, Mountain View, Calif.). Data were analyzed with FlowJo 7 (Tree Star Inc., Ashland, Oreg.). The Yo-Pro-1 positive cells were considered apoptotic and were expressed as % of total cells. Western blot analysis of treated LNCaP cell lysates was performed as described previously using rabbit anti-cFos, rabbit anti-PKC delta, rabbit anti-phospho-tyrosine 311 of PKC delta or rabbit anti-3-actin antibodies.
Background: Flow cytometry measures light scatter and fluorescence of single cells or particles in a stream.

Data set [3] deals with HIV long terminal repeat (LTR) promoter. Briefly: in vitro. The format is cell-based. To be noted: Jurkat cells. The procedure: as §2, with “The compounds were also tested in the T cell derived Jurkat cell line transfected with a luciferase reporter under control of an HIV long terminal repeat (LTR) promoter. Specifically,” for “Specifically,”

Turning to `CCC/C=C/C=C/C(=O)O[C@H]1/C(=C/C(=O)OC)C[C@H]2C[C@H]([C@@H](C)O)OC(=O)C[C@H](O)C[C@@H]3C[C@H](OC(C)=O)C(C)(C)[C@](O)(C[C@@H]4C/C(=C/C(=O)OC)C[C@H](/C=C/C(C)(C)[C@]1(O)O2)O4)O3` [Bryostatin 1], in the data set on U937 cells, the “Block of PMA inhibition of U937 cell proliferation” value is “blocks the effect of the phorbol ester” and the “Inhibition of U937 cell proliferation (total cells as % of control)” value (shortened to “Inhibition … (total cells as % of control)”) is on record as “has much less effect on either response”. For the same molecule, in the data set on U937 cells (listed as bryostatin 1), the “Block of PMA inhibition of U937 cell proliferation” value is recorded as “able to block the effect of PMA in a dose dependent manner” and the “Inhibition … (total cells as % of control)” value is reported as “not strongly antiproliferative”. For the same molecule, the “Time course of cFos induction in LNCaP cells” value with cFos is “largely lost by 5 hrs”. For the same molecule, the CCEC50 in data set [1] was over 5. In data set [2] (300 nM PMA combined with 1000 nM compound), the “Block of PMA-induced apoptosis in LNCaP cells” value is “largely blocked the induction of apoptosis by PMA”. The “Induction of apoptosis in LNCaP cells” value in data set [2] was “had little effect”.
By EC50 is commonly meant the concentration giving half of the maximal effect. Turning to `CCCCCCCCCCCCCC(=O)O[C@@H]1[C@@H](C)[C@@]2(O)[C@@H](C=C(CO)C[C@]3(O)C(=O)C(C)=C[C@@H]23)[C@@H]2C(C)(C)[C@]12OC(C)=O` [PMA, phorbol 12-myristate 13-acetate], in the data set with U937 cells, the “Inhibition … (total cells as % of control)” value is recorded as “inhibits cell proliferation”. The “Time course of cFos induction in LNCaP cells” value in the data set with cFos is recorded as “persisted for 5 hrs, with weak induction still evident at 8 hrs”. This molecule also showed an EC50 in data set [3] (LTR-luciferase, incubated 24, 48 and 72 hours (time of the listed values not stated)) of 0.1 nM. Moreover, in data set [3] (ratio of the CC50 to the EC50), the “Selectivity (CC50:EC50)” value was 1. In addition, the “Induction of apoptosis in LNCaP cells” value in data set [2] was “induced apoptosis”.
